In patent publication US20160009693A1, “HERBICIDAL COMPOUNDS” (SYNGENTA LIMITED, priority 2013, published 2016):

How the values were obtained:
Type in all cases: in vivo
Details in all cases: applied at 1000 g/h, evaluated after 13 days
[1] = system: Alopecurus myosuroides (ALOMY); experiment: Herbicidal glasshouse test, pre-emergence, ALOMY
Description: (§1) Seeds of a variety of test species are sown in standard soil in pots (Alopecurus myosuroides (ALOMY), Setaria faberi (SETFA), Echinochloa crus-galli (ECHCG), Solanum nigrum (SOLNI), Amaranthus retoflexus (AMARE), Ipomoea hederacea (IPOHE)). After cultivation for one day (pre-emergence) or after 8 days cultivation (post-emergence) under controlled conditions in a glasshouse (at 24/16° C., day/night; 14 hours light; 65% humidity), the plants are sprayed with an aqueous spray solution derived from the formulation of the technical active ingredient in acetone / water (50:50) solution containing 0.5% Tween 20 (polyoxyethelyene sorbitan monolaurate, CAS RN 9005-64-5). […] The test plants are then grown in a glasshouse under controlled conditions in a glasshouse (at 24/16° C., day/night; 14 hours light; 65% humidity) and watered twice daily. After 13 days for pre and post-emergence, the test is evaluated for the percentage damage caused to the plant. The biological activities are shown in the following table on a five point scale (5=80-100%; 4=60-79%; 3=40-59%; 2=20-39%; 1=0-19%).

Setaria faberi (SETFA) [2] = experiment: Herbicidal glasshouse test, pre-emergence, SETFA
Description: as §1

[3] = system: Echinochloa crus-galli (ECHCG); experiment: Herbicidal glasshouse test, pre-emergence, ECHCG
Description: as §1

Solanum nigrum (SOLNI) [4] = experiment: Herbicidal glasshouse test, pre-emergence, SOLNI
Description: as §1

[5] = system: Amaranthus retoflexus (AMARE); experiment: Herbicidal glasshouse test, pre-emergence, AMARE
Description: as §1

[6] = system: Ipomoea hederacea (IPOHE); experiment: Herbicidal glasshouse test, pre-emergence, IPOHE
Description: as §1

[7] = system: Alopecurus myosuroides (ALOMY); experiment: Herbicidal glasshouse test, post-emergence, ALOMY
Description: as §1

Setaria faberi (SETFA) [8] = experiment: Herbicidal glasshouse test, post-emergence, SETFA
Description: as §1

[9] = system: Echinochloa crus-galli (ECHCG); experiment: Herbicidal glasshouse test, post-emergence, ECHCG
Description: as §1

Solanum nigrum (SOLNI) [10] = experiment: Herbicidal glasshouse test, post-emergence, SOLNI
Description: as §1

[11] = system: Amaranthus retoflexus (AMARE); experiment: Herbicidal glasshouse test, post-emergence, AMARE
Description: as §1

[12] = system: Ipomoea hederacea (IPOHE); experiment: Herbicidal glasshouse test, post-emergence, IPOHE
Description: as §1

Structure (SMILES) | PRE Application ALOMY, percentage damage (five point scale) [1] | PRE Application SETFA, percentage damage (five point scale) (Setaria faberi (SETFA) [2]) | PRE Application ECHCG, percentage damage (five point scale) [3] | PRE Application SOLNI, percentage damage (five point scale) (Solanum nigrum (SOLNI) [4]) | PRE Application AMARE, percentage damage (five point scale) [5] | PRE Application IPOHE, percentage damage (five point scale) [6] | POST Application ALOMY, percentage damage (five point scale) [7] | POST Application SETFA, percentage damage (five point scale) (Setaria faberi (SETFA) [8]) | POST Application ECHCG, percentage damage (five point scale) [9] | POST Application SOLNI, percentage damage (five point scale) (Solanum nigrum (SOLNI) [10]) | POST Application AMARE, percentage damage (five point scale) [11] | POST Application IPOHE, percentage damage (five point scale) [12]
Cn1nnnc1NC(=O)c1nn(C)c(=O)n(CCC(F)(F)F)c1=O [Compound 1.094] | 5 (5=80-100%) | 5 (5=80-100%) | 5 (5=80-100%) | 5 (5=80-100%) | 5 (5=80-100%) | 5 (5=80-100%) | 5 (5=80-100%) | 5 (5=80-100%) | 5 (5=80-100%) | 5 (5=80-100%) | 5 (5=80-100%) | 5 (5=80-100%)
Cn1nnnc1NC(=O)c1nn(C)c(=O)n(-c2ccc(OC(F)(F)F)c(F)c2)c1=O [Compound 1.029] | 5 (5=80-100%) | 5 (5=80-100%) | 5 (5=80-100%) | 5 (5=80-100%) | 5 (5=80-100%) | 5 (5=80-100%) | 5 (5=80-100%) | 5 (5=80-100%) | 5 (5=80-100%) | 5 (5=80-100%) | 5 (5=80-100%) | 5 (5=80-100%)
Cn1nnnc1NC(=O)c1nn(C)c(=O)n(CC2CC2)c1=O [Compound 1.093] | 5 (5=80-100%) | 5 (5=80-100%) | 5 (5=80-100%) | 5 (5=80-100%) | 5 (5=80-100%) | 5 (5=80-100%) | 5 (5=80-100%) | 5 (5=80-100%) | 5 (5=80-100%) | 5 (5=80-100%) | 5 (5=80-100%) | 5 (5=80-100%)
Cc1cccc(-n2c(=O)c(C(=O)Nc3nnnn3C)nn(C)c2=O)c1 [Compound 1.053] | 5 (5=80-100%) | 3 (3=40-59%) | 5 (5=80-100%) | 5 (5=80-100%) | 5 (5=80-100%) | 5 (5=80-100%) | 5 (5=80-100%) | 3 (3=40-59%) | 4 (4=60-79%) | 5 (5=80-100%) | 5 (5=80-100%) | 5 (5=80-100%)
Cn1nnnc1NC(=O)c1nn(C)c(=O)n(-c2ccc(Cl)c(Cl)c2)c1=O [Compound 1.041] | 5 (5=80-100%) | 4 (4=60-79%) | 5 (5=80-100%) | 5 (5=80-100%) | 5 (5=80-100%) | 5 (5=80-100%) | 5 (5=80-100%) | 5 (5=80-100%) | 5 (5=80-100%) | 5 (5=80-100%) | 5 (5=80-100%) | 5 (5=80-100%)
Cn1nnnc1NC(=O)c1nn(C)c(=O)n(Cc2ccc(C#N)cc2)c1=O [Compound 1.050] | 5 (5=80-100%) | 2 (2=20-39%) | 5 (5=80-100%) | 5 (5=80-100%) | 5 (5=80-100%) | 5 (5=80-100%) | 5 (5=80-100%) | 1 (1=0-19%) | 5 (5=80-100%) | 5 (5=80-100%) | 5 (5=80-100%) | 5 (5=80-100%)
Cn1nnnc1NC(=O)c1nn(C)c(=O)n(Cc2c(F)cc(F)cc2F)c1=O [Compound 1.056] | 5 (5=80-100%) | 1 (1=0-19%) | 5 (5=80-100%) | 5 (5=80-100%) | 5 (5=80-100%) | 5 (5=80-100%) | 5 (5=80-100%) | 4 (4=60-79%) | 4 (4=60-79%) | 5 (5=80-100%) | 5 (5=80-100%) | 5 (5=80-100%)
Cn1nnnc1NC(=O)c1nn(C)c(=O)n(-c2cccc(Cl)c2)c1=O [Compound 1.019] | 5 (5=80-100%) | 5 (5=80-100%) | 5 (5=80-100%) | 5 (5=80-100%) | 5 (5=80-100%) | 5 (5=80-100%) | 5 (5=80-100%) | 5 (5=80-100%) | 5 (5=80-100%) | 5 (5=80-100%) | 5 (5=80-100%) | 5 (5=80-100%)
Cn1nnnc1NC(=O)c1nn(C)c(=O)n(-c2cccc(C(F)(F)F)c2)c1=O [Compound 1.028] | 5 (5=80-100%) | 5 (5=80-100%) | 5 (5=80-100%) | 5 (5=80-100%) | 5 (5=80-100%) | 5 (5=80-100%) | 5 (5=80-100%) | 5 (5=80-100%) | 5 (5=80-100%) | 5 (5=80-100%) | 5 (5=80-100%) | 5 (5=80-100%)
Cn1nnnc1NC(=O)c1nn(C)c(=O)n(-c2ccc([N+](=O)[O-])cc2)c1=O [Compound 1.031] | 3 (3=40-59%) | 4 (4=60-79%) | 4 (4=60-79%) | 5 (5=80-100%) | 5 (5=80-100%) | 4 (4=60-79%) | 4 (4=60-79%) | 5 (5=80-100%) | 5 (5=80-100%) | 5 (5=80-100%) | 5 (5=80-100%) | 2 (2=20-39%)
